This is an account of results in paper PMC3069143 (Analytical chemistry, 2011).

Data set [1] deals with Calf thymus ds-DNA.
Data set [2] relates to Salmonella typhimurium TA1535. The settings on record: ref Table S2 (SI); cited from earlier work.
The test system of a further data set is human hepatic cell lines. The note with it: ref Table S2 (SI); cited from earlier work.
In data set [3] the test system is Salmonella typhimurium TA1538. The note with it: ref Table S2 (SI); cited from earlier work.
Data set [4] concerns rodent. The note with it: cited from earlier work; for LD50 (in words): rat for styrene and NPYR, mouse for arylamines.
Data set [5] has as its system rodent. The settings on record: cited from earlier work.
Data set [6] relates to Calf thymus ds-DNA. The data set can be described thus: ECL genotoxicity array, multi-enzyme. The note with it: for ECL turnover rate R (in words): arylamines, HLE or MLE, AcCoA + NADPH.
[7] abbreviates: 1 min enzyme reaction, RLE or HLE.

SMILES strings stand for the structures. Like-named read-outs stand apart in the source and are kept apart here.

Turning to `CN(CCCC(=O)c1cccnc1)N=O` [NNK, 4-(methylnitrosamino)-1-(3-pyridyl)-1-butanone], the “ECL produced relative to styrene” value in the data set on Calf thymus ds-DNA [1] (0.2 mM substrate, either RLE or HLE, NADPH regenerating system) is reported as 2–3 times. In addition, in the data set on Calf thymus ds-DNA [1] (setting [7]), the “substrate concentration giving measurable ECL increase” value came to 0.2 mM. The “Ames mutagenicity, TA1535” value in data set [2] is given as “only slightly mutagenic”. Also, the “Comet assay OTM/conc.” value in the data set with human hepatic cell lines is on record as “small”. Besides, in data set [3], the “Ames mutagenicity, TA1538” value was “not mutagenic”.

In the case of `Cc1ccccc1` [toluene], in the data set with rodent [4] (rodent, single dose), the LD50 was 2250 mg/kg body weight. In addition, the TD50 in the data set on rodent [5] (liver TD50, rodent) is 5390 mg/kg body weight per day.

As for `O=NN1CCCC1` [NPYR, N-nitrosopyrrolidine], the “LD50 (in words)” value with rodent [4] is given as “small”. In the data set on Calf thymus ds-DNA [1] (setting [7]), the “substrate concentration giving measurable ECL increase” value stood at 0.2 mM. The “Ames mutagenicity, TA1535” value in data set [2] was “only slightly mutagenic”. In addition, the “Ames mutagenicity, TA1538” value in data set [3] is reported as “not mutagenic”.

As to `Cc1ccc(N)cc1N` [2,4-DAT, 2,4-diaminotoluene], the “LD50 (in words)” value with rodent [4] was “small”. The “R relative to 2,6-DAT” value in the data set on Calf thymus ds-DNA [6] (isomer pair 2,4-DAT vs 2,6-DAT) is 3 fold.

With `CC(=O)Nc1ccc2c(c1)Cc1ccccc1-2` [2-AAF, N-acetyl-2-aminofluorene], the “Comet assay OTM/conc.” value with human hepatic cell lines is listed as “large”.

As to `Cc1c(N)cccc1N` [2,6-DAT, 2,6-diaminotoluene], in the data set on Calf thymus ds-DNA [6], the “ECL turnover rate R (in words)” value is reported as “small but significant”. The “induction of liver tumors” value in the data set with rodent [5] (rat models) is recorded as “fails to induce liver tumors”.

As to `Nc1ccc(-c2ccccc2)cc1` [4-ABP, 4-aminobiphenyl], the “ECL turnover rate R (in words)” value with Calf thymus ds-DNA [6] is on record as “largest”.

With `Nc1ccc2ccccc2c1` [2-NA, 2-naphthylamine], the “ECL turnover rate R (in words)” value with Calf thymus ds-DNA [6] is on record as “did not generate large R”.

Take `C=Cc1ccccc1` [styrene]: in the data set with rodent [4], the “LD50 (in words)” value is listed as “small”. Further, in the data set on Calf thymus ds-DNA [1], the “ECL turnover rate R (in words)” value was “small” and the “substrate concentration giving measurable ECL increase” value was 1 mM. The “Comet assay OTM/conc.” value with human hepatic cell lines was “small”.
